Assay results: patent publication US20220089646A1 (THE UNIVERSITY OF QUEENSLAND, priority 2019, published 2022)
*1 amine or outer side, *2 acyl side, *3 side chain or, on linkers, in order; H or OH if unused. Where a SMILES comes first, the peptide text is derived from it. Bridges are numbered along the chain shown (N, C = ends). [ ]: non-standard residue; d: D form. ξ: configuration not given here. Phe(4-NO2) = N[C@@H](Cc1ccc([N+](=O)[O-])cc1)C(=O)O; Phe(4-Cl) = N[C@@H](Cc1ccc(Cl)cc1)C(=O)O; NHCH2CMe2S = CC(C)(CN[*:1])S[*:2]; NMeR = CN[C@@H](CCCNC(=N)N)C(=O)O; X1 = CC(C)(CN[*:2])S[*:1]; ξC = NC(CS)C(=O)O; Sar = CNCC(=O)O

Columns and labels:
[1] = target: T1, bovine pancreatic trypsin (Bos taurus, UniProt P00760); assay: Trypsin stability assay (Table 10); format: in vitro ADME; details: for half-life: bovine pancreatic trypsin 2.5 μg/mL, 37° C., One Phase Decay, read-out: Stability (t1/2, mins) Trypsin
T1 construct: from tissue; host or cells: bovine pancreas
T1 sequence (P00760 24-246): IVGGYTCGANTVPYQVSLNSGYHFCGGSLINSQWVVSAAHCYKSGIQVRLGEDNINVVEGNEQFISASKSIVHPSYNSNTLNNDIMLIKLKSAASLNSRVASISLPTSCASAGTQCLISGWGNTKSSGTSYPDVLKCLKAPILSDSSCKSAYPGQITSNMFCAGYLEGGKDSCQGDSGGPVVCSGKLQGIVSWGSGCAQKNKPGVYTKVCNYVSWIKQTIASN
Description: (§1) FIG. 20 is a series of graphs showing the stability of selected peptides in a trypsin (left-hand graphs) and plasma (right-hand graphs) stability assay (data normalised to concentration of each peptide at t=0, determined by LCMS, within each substrate; data analysed using One Phase Decay nonlinear regression in Prism software and each experiment performed in triplicate; mean+/−SEM);
Plasma was collected in house from adult mixed-gender Wistar rats, prepared using 2% EDTA as per standard practice. Peptides were added to rat plasma samples at 37° C. (in a water bath) with final concentrations of 100 uM (1:9 peptide in water:plasma) and a 50 μL sample was immediately taken and precipitated in 150 μL cold acetonitrile (9:1 ACN:water). This sample became the baseline, or t=0 min sample. […] At each time point, the 50 μL of plasma collected was immediately added to cold ACN. Each collected plasma sample in ACN was directly vortexed for 30 seconds and then centrifuged at room temperature (13K rpm, 5 min). 150 μL of the supernatant was taken and directly placed in glass HPLC vials for LCMS analysis.
The protocol for the trypsin stability assay was very similar to the plasma stability assay discussed above. The only difference was the use of a trypsin solution (bovine pancreatic trypsin 2.5 μg/mL in NH4HCO3 buffer, pH approx. 8-8.5, 37° C.) instead of rat plasma. Volumes, times and preparation protocols were exactly as mentioned above.

[2] = Plasma stability assay (Table 10); format: in vitro ADME; details: rat plasma, 37° C., 100 uM peptide, One Phase Decay; read-out: Stability (t1/2, mins) Plasma
Description: as §1
(§2) The results shown in Table 10 utilized rat plasma. • Note that DP-7-11 and CP5 represent the same compound, and DP-7-12 and CP6 are the same compound. In this regard, a different regression analysis method was adopted on the above cAMP experiments. Particularly, a new non-linear regression (four-parameter) was adopted to better account for hill slope, thereby improving the regression fit.
Plasma was collected in house from adult mixed-gender Wistar rats, prepared using 2% EDTA as per standard practice. Peptides were added to rat plasma samples at 37° C. (in a water bath) with final concentrations of 100 uM (1:9 peptide in water:plasma) and a 50 μL sample was immediately taken and precipitated in 150 μL cold acetonitrile (9:1 ACN:water). This sample became the baseline, or t=0 min sample. Plasma with peptide was immediately returned to the water bath and subsequent 50 μL samples were taken at 5, 10, 15, 30, 60 and 120 min. At each time point, the 50 μL of plasma collected was immediately added to cold ACN. Each collected plasma sample in ACN was directly vortexed for 30 seconds and then centrifuged at room temperature (13K rpm, 5 min). 150 μL of the supernatant was taken and directly placed in glass HPLC vials for LCMS analysis.

[3] = target: KOP (Homo sapiens, UniProt P41145); assay: In vitro cAMP activity at KOP (Table 10); format: cell-based; details: cAMP inhibition, four-parameter regression, normalised to U50488H
Protocol: (§3) The CP series compounds were assayed as follows: The assay was performed using a 96 well ½ area plate. The different cAMP standard solutions (3 μL/well) were plated in duplicate. The different concentrations of drug (3 μL/well), and control solutions (3 μL/well) were plated in triplicate. Following this, the acceptor bead mixture (3 μL/well) was added to the respective sets—either cAMP standard curve or the treatment. This was covered and incubated on the orbital shaker for 60 minutes at 37° C. Then, the donor bead mixture (10 μL/well) was added to each well. This was incubated at room temperature overnight on the orbital shaker.
(§4) For DP-11-06 the assay was carried out in the same way as for the CP compounds except it was incubated for 30 mins at 37° C.
(§5) For the CP series compounds and DP-11-06, the Ensight® Multimode Plate Reader was used to quantify the fluorescence units of each plate. Before reading, each plate was centrifuged at 280 g for 30 seconds. Using GraphPad Prism7® Software, cAMP concentrations were determined by fit spline/LOWESS analysis. The cAMP standard curve was used for interpolation at this point. The cAMP concentrations were then normalized to the highest cAMP concentration recorded and analyzed by one-way ANOVA for multiple comparisons. The IC50 for each compound was then calculated using GraphPad Prism7® with non-linear regression analysis using four parameter curve fitting.
as §2

[4] = target: T2, trypsin (Bos taurus, UniProt P00760); assay: Trypsin stability; format: in vitro ADME; details: for Trypsin: complete degradation within: 37° C. (Table 8)
T2 sequence (P00760 24-246): T1 sequence (P00760 24-246)
Protocol: (§6) Purified DP-7-11 (1 mg/mL) was dissolved in 0.1 M ammonium bicarbonate (NH4HCO3) buffer. To prepare a stock trypsin solution, 1 mg trypsin was dissolved in 50 mL of 0.1 M NH4HCO3 buffer. Equal volumes of the stock trypsin solution (62.5 μL) and DP-7-11 solution (62.5 μL) were incubated in 375 μL of 0.1M NH4HCO3 buffer in a 37° C. water bath. Aliquots of 100 μL were collected from this mixture at set time intervals of 0 min, up to 24 hours. Ice-cold acetonitrile containing 0.5% TFA was used to quench the reaction between DP-7-11 and trypsin at predetermined intervals, and just prior to HPLC or LC-MS analysis. The quenched samples were vortexed for 10 minutes followed by centrifugation at 12,000 rpm for a further 15 minutes. Supernatant was sampled and analysed using analytical RP-HPLC or LC-MS. Samples without trypsin acted as negative controls and were sampled at two intervals of 0 hour and 6 hours.
(§7) As used in this serum and trypsin stability discussion, the term ‘degraded completely’ relates to the relevant compound being completely absent when tested. In other words, the compound being tested is not observed when tested.
(§8) The serum and trypsin stability of DP-7-11 and DP-7-12 were tested (in some instances again) using LC-MS. The LC-MS utilized in this study was more sensitive than the LC-MS utilized in the above tests.

[5] = target: DOP (Homo sapiens, UniProt P41143); assay: In vitro cAMP activity at DOP (Table 10); format: cell-based; details: cAMP inhibition, four-parameter regression
Protocol: as §3, §4, §5
(§9) In this regard, a different regression analysis method was adopted on the above cAMP experiments. Particularly, a new non-linear regression (four-parameter) was adopted to better account for hill slope, thereby improving the regression fit.

[6] = target: MOP (Homo sapiens, UniProt P35372); assay: In vitro cAMP activity at MOP (Table 10); format: cell-based; details: cAMP inhibition, four-parameter regression
Protocol: as §3, §4, §5, §9

[7] = Serum stability; format: in vitro ADME; details: rat, serum, 37° C., LC-MS (Table 8)
Protocol: as §6
Serum stability of DP-7-11 was also performed. In this regard, rat serum replaced trypsin and NH4HCO3 buffer. Water was used as negative control in place of serum, with the stability study performed in an identical fashion to the trypsin study. […] DP-11-00 and DP-11-06 were tested in a similar manner.
as §7
This appears to indicate the improved metabolic stability of the present invention.
as §8

Sequence of DOP (P41143 whole entry): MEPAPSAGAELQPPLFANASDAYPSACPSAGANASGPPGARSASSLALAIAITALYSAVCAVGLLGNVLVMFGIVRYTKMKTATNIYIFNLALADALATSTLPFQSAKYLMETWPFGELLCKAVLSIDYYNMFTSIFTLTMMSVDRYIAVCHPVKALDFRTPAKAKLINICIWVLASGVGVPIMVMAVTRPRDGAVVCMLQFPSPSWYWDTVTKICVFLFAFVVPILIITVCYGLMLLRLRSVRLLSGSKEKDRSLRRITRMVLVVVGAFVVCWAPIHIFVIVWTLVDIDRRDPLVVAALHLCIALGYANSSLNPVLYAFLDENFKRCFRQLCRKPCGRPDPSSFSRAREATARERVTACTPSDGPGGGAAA
Sequence of KOP (P41145 whole entry): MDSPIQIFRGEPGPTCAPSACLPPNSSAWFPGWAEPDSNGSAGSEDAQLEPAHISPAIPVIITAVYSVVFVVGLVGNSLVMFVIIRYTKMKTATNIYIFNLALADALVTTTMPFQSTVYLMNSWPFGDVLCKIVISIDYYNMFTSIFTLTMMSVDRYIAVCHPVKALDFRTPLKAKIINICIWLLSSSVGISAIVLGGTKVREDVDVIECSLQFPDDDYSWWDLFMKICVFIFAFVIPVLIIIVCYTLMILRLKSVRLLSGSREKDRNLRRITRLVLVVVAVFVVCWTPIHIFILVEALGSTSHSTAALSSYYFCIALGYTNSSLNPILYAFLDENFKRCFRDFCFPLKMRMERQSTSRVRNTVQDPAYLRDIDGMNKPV
Sequence of MOP (P35372 whole entry): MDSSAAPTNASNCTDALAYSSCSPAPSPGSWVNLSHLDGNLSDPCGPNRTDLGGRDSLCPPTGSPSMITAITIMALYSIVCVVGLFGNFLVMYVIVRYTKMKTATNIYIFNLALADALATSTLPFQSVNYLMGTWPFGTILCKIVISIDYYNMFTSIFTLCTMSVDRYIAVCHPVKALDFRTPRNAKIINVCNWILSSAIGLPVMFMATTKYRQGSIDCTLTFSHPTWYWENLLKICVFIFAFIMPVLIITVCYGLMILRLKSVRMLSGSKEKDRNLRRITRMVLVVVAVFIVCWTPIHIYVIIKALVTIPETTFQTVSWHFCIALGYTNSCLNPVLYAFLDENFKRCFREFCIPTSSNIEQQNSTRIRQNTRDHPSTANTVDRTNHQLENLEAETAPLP

CC(C)C[C@H](NC(=O)[C@H](Cc1ccc([N+](=O)[O-])cc1)NC(=O)CN(C)C(=O)[C@@H](N)Cc1ccc(O)cc1)C(=O)N[C@@H](CCCNC(=N)N)C(=O)N(C)[C@@H](CCCNC(=N)N)C(=O)NC1CSSC(C)(C)CNC(=O)C[C@@H](C(=O)N[C@@H](CCCCN)C(N)=O)NC(=O)[C@H](CCCNC(=N)N)NC1=O (stereo partly drawn) [CP12, c(Tyr-Sar-(p-NO2-Phe)-Leu-Arg-NMA-SSa-Arg-Asp-Lys)] (H-Y[Sar][Phe(4-NO2)]LR[NMeR][ξC]RDK-NH2; linker 7-9 via X1; N-terminus assumed)
half-life [1]: 0.019 min | half-life [2]: < 0.01 min | EC50 [3]: 7.5 nM

CC1(C)CNC(=O)C[C@@H](NC(=O)CNC(=O)[C@@H](N)Cc2ccc(O)cc2)C(=O)N[C@@H](Cc2ccccc2)C(=O)N[C@H](C(=O)N[C@@H](CCCNC(=N)N)C(=O)N[C@@H](CCCNC(=N)N)C(N)=O)CSS1 [DP-7-14, c(Tyr-Gly-D(Asp)-Phe-SSa-Arg-Arg)] (H-YG[dD]FCRR-NH2; linker 3-5 via NHCH2CMe2S)
half-life [1]: < 0.01 min | half-life [2]: < 0.01 min

CC[C@H](C)[C@H](NC(=O)[C@H](CCCN=C(N)N)NC(=O)[C@H](CCCN=C(N)N)NC(=O)[C@H](CC(C)C)NC(=O)[C@H](Cc1ccccc1)NC(=O)CNC(=O)CNC(=O)[C@@H](N)Cc1ccc(O)cc1)C(=O)N[C@@H](CCCN=C(N)N)C(=O)N1CCC[C@H]1C(=O)N[C@@H](CCCCN)C(N)=O [DP-11-00]
Susceptibility to trypsin digestion [4]: highly susceptible | Trypsin: complete degradation within [4]: within 1 h

CC1(C)CNC(=O)C[C@@H](C(=O)N[C@@H](CCCNC(=N)N)C(=O)N[C@@H](CCCNC(=N)N)C(N)=O)NC(=O)[C@H](Cc2ccccc2)NC(=O)CNC(=O)C(NC(=O)[C@@H](N)Cc2ccc(O)cc2)CSS1 (stereo partly drawn) [CP1, c(Tyr-SSa-Gly-Phe-L-Asp-Arg-Arg)]
EC50 [5]: > 10000 nM | half-life [1]: < 0.01 min | EC50 [6]: 4530 nM | half-life [2]: < 0.01 min | EC50 [3]: 1270 nM

CC1(C)CNC(=O)C[C@@H](C(=O)N[C@@H](CCCNC(=N)N)C(=O)N[C@@H](CCCNC(=N)N)C(N)=O)NC(=O)[C@H](Cc2ccccc2)NC(=O)C(NC(=O)CNC(=O)[C@@H](N)Cc2ccc(O)cc2)CSS1 (stereo partly drawn) [CP3, c(Tyr-Gly-SSa-Phe-Asp-Arg-Arg)] (H-YG[ξC]FDRR-NH2; linker 3-5 via X1; N-terminus assumed)
EC50 [5]: > 10000 nM | EC50 [6]: > 10000 nM | EC50 [3]: > 10000 nM

CC(C)C[C@H](NC(=O)[C@H](Cc1ccc(Cl)cc1)NC(=O)CN(C)C(=O)[C@@H](N)Cc1ccc(O)cc1)C(=O)N[C@@H](CCCNC(=N)N)C(=O)N[C@H](CCCNC(=N)N)C(=O)NC1CSSC(C)(C)CNC(=O)C[C@@H](C(=O)N[C@@H](CCCCN)C(N)=O)NC(=O)[C@H](CCCNC(=N)N)NC1=O (stereo partly drawn) [CP10, c(Tyr-Sar-(p-Cl-Phe)-Leu-Arg-D(Arg)-SSa-Arg-Asp-Lys)] (H-Y[Sar][Phe(4-Cl)]LR[dR][ξC]RDK-NH2; linker 7-9 via X1; N-terminus assumed)
EC50 [5]: 127 nM | half-life [1]: 2.3 min | EC50 [6]: 1600 nM | EC50 [3]: 0.94 nM

CC(C)C[C@H](NC(=O)[C@H](Cc1ccccc1)NC(=O)CNC(=O)CNC(=O)[C@@H](N)Cc1ccc(O)cc1)C(=O)N[C@@H](CCCNC(=N)N)C(=O)N[C@@H](CCCNC(=N)N)C(N)=O [DP-7-00, Tyr-Gly-Gly-Phe-Leu-Arg-Arg]
Susceptibility to trypsin digestion [4]: highly susceptible | Trypsin: complete degradation within [4]: within 1 h

CC1(C)CNC(=O)C[C@H](C(=O)N[C@@H](CCCNC(=N)N)C(=O)N[C@@H](CCCNC(=N)N)C(N)=O)NC(=O)[C@H](Cc2ccccc2)NC(=O)C(NC(=O)CNC(=O)[C@@H](N)Cc2ccc(O)cc2)CSS1 (stereo partly drawn) [DP-7-13, c(Tyr-Gly-SSa-Phe-D(Asp)-Arg-Arg)] (H-YG[ξC]F[dD]RR-NH2; linker 3-5 via X1; N-terminus assumed)
half-life [1]: < 0.01 min | half-life [2]: < 0.01 min

CC[C@H](C)[C@H](NC(=O)C1CSSC(C)(C)CNC(=O)C[C@@H](NC(=O)[C@H](Cc2ccccc2)NC(=O)CNC(=O)CNC(=O)[C@@H](N)Cc2ccc(O)cc2)C(=O)N[C@@H](CCCNC(=N)N)C(=O)N1)C(=O)N[C@@H](CCCNC(=N)N)C(=O)N1CCC[C@H]1C(=O)N[C@@H](CCCCN)C(N)=O (stereo partly drawn) [DP-11-06, c(Tyr-Gly-Gly-Phe-D(Asp)-Arg-SSa-Ile-Arg-Pro-Lys)] (H-YGGF[dD]R[ξC]IRPK-NH2; linker 5-7 via NHCH2CMe2S; N-terminus assumed)
half-life [7]: 1800 s | half-life [1]: 360 min | Peptide remained in trypsin after 360 minutes ([1]; n = 1): # (more than 90% remained after 360 minutes) | half-life [2]: 30 min | EC50 [3]: 0.75 nM

CC1(C)CNC(=O)C[C@H](NC(=O)CNC(=O)[C@@H](N)Cc2ccc(O)cc2)C(=O)N[C@@H](Cc2ccccc2)C(=O)NC(C(=O)N[C@@H](CCCNC(=N)N)C(=O)N[C@@H](CCCNC(=N)N)C(N)=O)CSS1 (stereo partly drawn) [CP4, c(Tyr-Gly-Asp-Phe-SSa-Arg-Arg)] (H-YGDF[ξC]RR-NH2; linker 3-5 via NHCH2CMe2S; N-terminus assumed)
EC50 [5]: > 10000 nM | EC50 [6]: > 10000 nM | EC50 [3]: > 10000 nM
